Reference: PubChem BioAssay (NCI)
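Five concentrations, 48 hours, 96-well plates. Definition used: TGI = concentration required for complete inhibition of growth.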

test system: COLO 205 colon; experiment: NCI-60 cell line screen, 48 h

Row | Compound | TGI [µM]
1 | [N-]=[N+]=NC[C@H]1OCO[C@H](CN=[N+]=[N-])[C@@H](OCCOCCCl)[C@@H]1OCCOCCCl | > 100
2 | c1ccc(-c2nc(-c3ccccc3SSc3ccccc3-c3nc(-c4ccccc4)nn3-c3ccccc3)n(-c3ccccc3)n2)cc1 | > 100
3 | Cc1nc2n(c1/C=C1/C(=O)Nc3cccc(Cl)c31)CCS2 | > 100
4 | C[C@@H](NC(=O)[C@@H]1C[C@]1(C)COC(=O)c1cc([N+](=O)[O-])cc([N+](=O)[O-])c1)c1cccc2ccccc12 | > 100

test system: DU-145 prostate; experiment: NCI-60 cell line screen, 48 h

Row | Compound | TGI [µM]
5 | CC(C)(C)OC(=O)NCCCCC1NC(=O)[C@@H]2Cc3c([nH]c4ccccc34)C(C3CCCCC3)N2C1=O (some centres undefined) | > 100
6 | CC(C)(C)N1CSC(=S)N(Cc2ccco2)C1 | 15.5
7 | CC1(C)N=[N+]([O-])C1(C)C | > 100
8 | [N-]=[N+]=NC[C@H]1OCO[C@H](CN=[N+]=[N-])[C@@H](OCCOCCCl)[C@@H]1OCCOCCCl | > 100
9 | c1ccc(-c2nc(-c3ccccc3SSc3ccccc3-c3nc(-c4ccccc4)nn3-c3ccccc3)n(-c3ccccc3)n2)cc1 | > 100
10 | Cc1nc2n(c1/C=C1/C(=O)Nc3cccc(Cl)c31)CCS2 | > 100
11 | C[C@@H](NC(=O)[C@@H]1C[C@]1(C)COC(=O)c1cc([N+](=O)[O-])cc([N+](=O)[O-])c1)c1cccc2ccccc12 | > 100

test system: EKVX NSCLC; experiment: NCI-60 cell line screen, 48 h

Row | Compound | TGI [µM]
12 | CC(C)(C)OC(=O)NCCCCC1NC(=O)[C@@H]2Cc3c([nH]c4ccccc34)C(C3CCCCC3)N2C1=O (some centres undefined) | > 100
13 | CC(C)(C)N1CSC(=S)N(Cc2ccco2)C1 | 30.2
14 | CC1(C)N=[N+]([O-])C1(C)C | > 100
15 | [N-]=[N+]=NC[C@H]1OCO[C@H](CN=[N+]=[N-])[C@@H](OCCOCCCl)[C@@H]1OCCOCCCl | > 100
16 | c1ccc(-c2nc(-c3ccccc3SSc3ccccc3-c3nc(-c4ccccc4)nn3-c3ccccc3)n(-c3ccccc3)n2)cc1 | > 100
17 | Cc1nc2n(c1/C=C1/C(=O)Nc3cccc(Cl)c31)CCS2 | > 100
18 | C[C@@H](NC(=O)[C@@H]1C[C@]1(C)COC(=O)c1cc([N+](=O)[O-])cc([N+](=O)[O-])c1)c1cccc2ccccc12 | > 100

test system: HCC-2998 colon; experiment: NCI-60 cell line screen, 48 h

Row | Compound | TGI [µM]
19 | CC(C)(C)OC(=O)NCCCCC1NC(=O)[C@@H]2Cc3c([nH]c4ccccc34)C(C3CCCCC3)N2C1=O (some centres undefined) | 67.3
20 | CC(C)(C)N1CSC(=S)N(Cc2ccco2)C1 | 13.3
21 | CC1(C)N=[N+]([O-])C1(C)C | > 100
22 | [N-]=[N+]=NC[C@H]1OCO[C@H](CN=[N+]=[N-])[C@@H](OCCOCCCl)[C@@H]1OCCOCCCl | > 100
23 | c1ccc(-c2nc(-c3ccccc3SSc3ccccc3-c3nc(-c4ccccc4)nn3-c3ccccc3)n(-c3ccccc3)n2)cc1 | > 100
24 | Cc1nc2n(c1/C=C1/C(=O)Nc3cccc(Cl)c31)CCS2 | > 100
25 | C[C@@H](NC(=O)[C@@H]1C[C@]1(C)COC(=O)c1cc([N+](=O)[O-])cc([N+](=O)[O-])c1)c1cccc2ccccc12 | > 100

test system: HCT-116 colon; experiment: NCI-60 cell line screen, 48 h

Row | Compound | TGI [µM]
26 | CC(C)(C)OC(=O)NCCCCC1NC(=O)[C@@H]2Cc3c([nH]c4ccccc34)C(C3CCCCC3)N2C1=O (some centres undefined) | > 100
27 | CC(C)(C)N1CSC(=S)N(Cc2ccco2)C1 | 16.7
28 | CC1(C)N=[N+]([O-])C1(C)C | > 100
29 | [N-]=[N+]=NC[C@H]1OCO[C@H](CN=[N+]=[N-])[C@@H](OCCOCCCl)[C@@H]1OCCOCCCl | > 100
30 | c1ccc(-c2nc(-c3ccccc3SSc3ccccc3-c3nc(-c4ccccc4)nn3-c3ccccc3)n(-c3ccccc3)n2)cc1 | > 100
31 | Cc1nc2n(c1/C=C1/C(=O)Nc3cccc(Cl)c31)CCS2 | > 100
32 | C[C@@H](NC(=O)[C@@H]1C[C@]1(C)COC(=O)c1cc([N+](=O)[O-])cc([N+](=O)[O-])c1)c1cccc2ccccc12 | > 100

test system: HCT-15 colon; experiment: NCI-60 cell line screen, 48 h

Row | Compound | TGI [µM]
33 | CC(C)(C)OC(=O)NCCCCC1NC(=O)[C@@H]2Cc3c([nH]c4ccccc34)C(C3CCCCC3)N2C1=O (some centres undefined) | > 100
34 | CC(C)(C)N1CSC(=S)N(Cc2ccco2)C1 | 10.6
35 | CC1(C)N=[N+]([O-])C1(C)C | > 100
36 | [N-]=[N+]=NC[C@H]1OCO[C@H](CN=[N+]=[N-])[C@@H](OCCOCCCl)[C@@H]1OCCOCCCl | > 100
37 | c1ccc(-c2nc(-c3ccccc3SSc3ccccc3-c3nc(-c4ccccc4)nn3-c3ccccc3)n(-c3ccccc3)n2)cc1 | > 100
38 | Cc1nc2n(c1/C=C1/C(=O)Nc3cccc(Cl)c31)CCS2 | > 100
39 | C[C@@H](NC(=O)[C@@H]1C[C@]1(C)COC(=O)c1cc([N+](=O)[O-])cc([N+](=O)[O-])c1)c1cccc2ccccc12 | > 100

test system: HL-60(TB) leukemia; experiment: NCI-60 cell line screen, 48 h

Row | Compound | TGI [µM]
40 | CC(C)(C)OC(=O)NCCCCC1NC(=O)[C@@H]2Cc3c([nH]c4ccccc34)C(C3CCCCC3)N2C1=O (some centres undefined) | > 100
41 | CC(C)(C)N1CSC(=S)N(Cc2ccco2)C1 | 4.03
42 | CC1(C)N=[N+]([O-])C1(C)C | > 100
43 | [N-]=[N+]=NC[C@H]1OCO[C@H](CN=[N+]=[N-])[C@@H](OCCOCCCl)[C@@H]1OCCOCCCl | > 100
44 | c1ccc(-c2nc(-c3ccccc3SSc3ccccc3-c3nc(-c4ccccc4)nn3-c3ccccc3)n(-c3ccccc3)n2)cc1 | > 100
45 | Cc1nc2n(c1/C=C1/C(=O)Nc3cccc(Cl)c31)CCS2 | > 100

test system: HOP-62 NSCLC; experiment: NCI-60 cell line screen, 48 h

Row | Compound | TGI [µM]
46 | CC(C)(C)OC(=O)NCCCCC1NC(=O)[C@@H]2Cc3c([nH]c4ccccc34)C(C3CCCCC3)N2C1=O (some centres undefined) | > 100
47 | CC(C)(C)N1CSC(=S)N(Cc2ccco2)C1 | 19.4
48 | [N-]=[N+]=NC[C@H]1OCO[C@H](CN=[N+]=[N-])[C@@H](OCCOCCCl)[C@@H]1OCCOCCCl | > 100
49 | Cc1nc2n(c1/C=C1/C(=O)Nc3cccc(Cl)c31)CCS2 | 74.1
